The series relates to mutant mice (Advillin^Cre; Mecp2^f/y, Advillin^Cre; Shank3^f/f, Advillin^Cre; Gabrb3^f/+, Advillin^Cre; Gabrb3^f/f). As to the kind of experiment: Tactile prepulse inhibition (PPI) assay and response to air puff alone, acute Compound 5. In kind it is in vivo, mouse. As to conditions: 2 mg/kg i.p. Here is the method:
FIG. 1 is a graph showing percent inhibition of an acoustic startle response (PPI) to a 125-dB noise (pulse), when the startle noise was preceded by a light air puff (prepulse, 0.9 PSI, 50 ms) at an interstimulus interval of 250 ms. Values are expressed as percent of control littermates' performance. Experiments were performed in mutant mice (Advillin^Cre; Mecp2^f/y, Advillin^Cre; Shank3^f/f) and control littermates, 30 minutes after an intraperitoneal injection of either saline (vehicle) the peripherally restricted Compound 5 (2 mg/kg). Two-way ANOVA, with post-hoc Holm-Sidak's test, *, p<0.05, when comparing mutants to control within same treatment; I, p<0.05, or p<0.10, when comparing the same genotype across different treatments.
FIG. 2 is a graph showing response to a light air puff stimulus alone (0.9 PSI, 50 ms). Responses are expressed as a percent of startle response to a 125-B noise. Experiments were performed in mutant mice (Advillin^Cre; Mecp2^f/y, Advillin^Cre; Shank3^f/f) and control littermates, 30 minutes after an intraperitoneal injection of either saline (vehicle) the peripherally restricted Compound 5 (2 mg/kg). Two-way ANOVA, with post-hoc Holm-Sidak's test, *, p<0.05, when comparing mutants to control within same treatment; I, p<0.05, when comparing the same genotype across different treatments.
FIG. 3 is a graph showing magnitude of startle response to a 125-dB noise. Experiments were performed in mutant mice (Advillin^Cre; Mecp2^f/y, Advillin^Cre; Shank3^f/f) and control littermates, 30 minutes after an intraperitoneal injection of either saline (vehicle) the peripherally restricted Compound 5 (2 mg/kg).
FIG. 4 is a graph showing the percent inhibition of an acoustic startle response (PPI) to a 125-dB noise (pulse), when the startle noise was preceded by a light air puff (prepulse, 0.9 PSI, 50 ms) at an interstimulus interval of 250 ms. Values were expressed as percent of control littermates' performance. Experiments were performed in mutant mice (Advillin^Cre; Mecp2^f/y, Advillin^Cre; Shank3^f/f, Advillin^Cre; Gabrb^3f/+, Advillin^Cre; Gabrb3^f/f) and control littermates, 30 minutes after an intraperitoneal injection of either saline (vehicle) or Compound 5 at 2 mg/kg. […] Two-way ANOVA, with post-hoc Holm-Sidak's test, *, p<0.05, when comparing mutants to control within same treatment; t, p<0.05, or #, p<0.10, when comparing the same genotype across different treatments.
FIG. 5 is a graph showing the response to a light air puff stimulus alone (0.9 PSI, 50 ms). Responses were expressed as a percent of startle response to a 125-B noise. Experiments were performed in mutant mice (Advillin^Cre; Mecp2^f/y, Advillin^Cre; Shank3^f/f, Advillin^Cre; Gabrb3^f/+, Advillin^Cre; Gabrb3^f/f) and control littermates, 30 minutes after an intraperitoneal injection of either saline (vehicle) or Compound 5 at 2 mg/kg. […] Two-way ANOVA, with post-hoc Holm-Sidak's test, *, p<0.05, when comparing mutants to control within same treatment; f, p<0.05, when comparing the same genotype across different treatments. […]
FIGS. 1 and 4 show the percent inhibition of an acoustic startle response (PPI) to a 125-dB noise (pulse), when the startle noise was preceded by a light aft puff (prepulse, 0.9 PSI, 50 ms) at an interstimulus interval of 250 ms. Values were expressed as percent of control littermates' performance. […]

Setting [1] is: Advillin^Cre, Mecp2^f/y, Shank3^f/f, Gabrb3^f/+ mice, 30 min, vs saline.

“Also recorded” adds a separate entry of the source. Structures can show the parent of a compound that is named as a salt.

Turning to `NC1C=C(C(=O)O)CCC1` (centres unmarked) [Compound 5, 3-aminocyclohex-1-enecarboxylic acid hydrochloride], for the setting “Advillin^Cre, Gabrb3^f/f mice, 30 min, hydrochloride, 2 mg/kg”, the “tactile (hairy skin) sensitivity in mice with complete loss of GABA-A receptors on peripheral somatosensory neurons” value is listed as “do not show a reduction in tactile sensitivity; also recorded: did not show any improvements in hairy skin sensitivity”. In addition, under setting [1], the “responsivity to a light air puff stimulus alone (0.9 PSI, 50 ms)” value was “reduced responsivity to an air puff stimulus” and the “tactile PPI performance” value is on record as “reduced tactile PPI performance”. For the same compound, for the setting “Mecp2, Shank3 and Gabrb3 heterozygous conditional mutant mice, 30 minutes after injection, hydrochloride, 2 mg/kg”, the “hairy skin hypersensitivity (tactile PPI assay and response to air puff stimulus alone)” value is reported as “reduces hairy skin over-reactivity; also recorded: significantly reduced hairy skin hypersensitivity; also recorded: reduces hairy skin hypersensitivity”. Further, for the setting “mutant mice and control littermates, 30 min, hydrochloride, 2 mg/kg”, the “motor behaviors or sedation, average startle amplitude elicited by a 125-dB noise” value is “did not have negative effects on motor behaviors or sedation; also recorded: no significant differences between any genotypes or treatment groups”.

These data come from US12252457B2, “Compositions and methods for reducing tactile dysfunction, anxiety, and social impairment” (President and Fellows of Harvard College, priority 2018, dated 2025).
